Source: EP0974351A2, “Medicament for preventing and treating gastrointestinal damage” (JOUVEINAL, priority 1998, dated 2000)

Tests used:
Assay type in all cases: in vivo, Male albino mice of the outbred TO strain
[1] = system: Audiogenic Convulsions; assay: Audiogenic seizures after ethanol withdrawal in mice; settings: for Percentage of Group Showing Clonic Convulsions: Ethanol Diet, 8 hours from ethanol withdrawal, ethanol/saline 80
Method: (§1) Male albino mice of the outbred TO strain (Bantin and Kingman, UK) were used in all studies. The weight ranged from 25 to 35 g, with no more than a 5 g range in any single experiment. The mice were housed, eight per cage, at 21°C ± 1°C, with 55 ± 10% relative humidity, and a 12-hour light/dark cycle with the light phase between 09:00 to 21:00. All mice received ad libitum access to tap water and standard laboratory chow (RM-1, Special Diet Services, UK) until their use in experiments or until their diet was replaced with a liquid diet.
(§2) Ethanol was administered in a liquid diet schedule. All mice received control diet for an initial 2-day period. Ethanol treated mice then received a diet containing 3.5% (v/v) ethanol/water for 2 days, followed by a diet containing 7% ethanol for a further 5 days. The average intake was 22 to 30 g/kg/day. Control groups were pair-fed a control diet, balanced isocalorifically to match the ethanol containing diet. There were no differences in the weights of the ethanol-treated and control mice at the end of the treatment periods. When mice were withdrawn from the ethanol (between 07:00 AM and 09:00 AM), they were provided with tap water until their use in experiments.
(§3) Gabapentin was dissolved in saline, the solution being made freshly each testing day. Intraperitoneal (i.p.) injections of either gabapentin, 10 mL/kg, or saline, were given immediately on withdrawal from the ethanol treatment, in the studies on the handling responses and 2 hours prior to measurement of audiogenic seizures. In the experiments using the elevated plus maze, gabapentin or saline was injected i.p. at 8 hours after the removal of the ethanol diet, and the mice placed on the plus maze 60 minutes after the injections. In the studies on motor co-ordination (ataxia) and on locomotor activity, gabapentin or saline was injected to ethanol-naive chow fed mice immediately before testing. Measurements were then made for 60 minutes for the ataxia study, and for 30 minutes in the case of the locomotor activity.
At 8 and 12 hours from ethanol withdrawal, the susceptibility to sound-induced convulsions was measured in separate groups of ten mice. Mice were tested individually in a sound-proof perspex box 30 × 30 × 30 cm containing an electric door-bell. The bell was rung for 2 minutes or until the first signs of convulsions. The number of mice which responded by wild-running and clonic convulsions was counted. The mice were humanely killed as soon as a full convulsion was seen.
(§4) The results of the handling response ratings were compared by nonparametric two-way analysis of variance, designed for repeat measures on the same animal. The results of the area under the curve calculations were compared by the Mann-Whitney U-test. The convulsion incidence was analyzed by Fisher's exact probability test. The measurements from the elevated plus maze were subjected to one-way analysis of variance, followed by a Bonuferroni multiple comparison test, comparing all groups to the control group which received saline injections, and also both ethanol treated groups which received gabapentin to the ethanol treated group which received saline. The ataxia measurements were analyzed by the Mann-Whitney U-test and the locomotor activity by Student's t-test.

[2] = system: handling responses following withdrawal of chronic ethanol treatment; assay: Handling-induced behavior after ethanol withdrawal in mice
Method: as §1, §2, §3
Following withdrawal from the ethanol treatment at 09:00 AM, ratings of handling-induced behavior were assessed by the same experimenter, on the same mice, every hour for a period of 12 hours after withdrawal from ethanol.
Each mouse was lifted gently by the tail and held for 3 seconds, 30 cm under an "Anglepoise lamp" with a 60-watt bulb. The animal was gently rotated and its ensuing behavior rated on a scale of 1 to 5 according to the criteria in Table 2. Groups of 15 mice were used in each of the treatment groups, and the data were calculated as medians with interquartile ranges. The data were also expressed as the area under the curve at 4 and 12 hours from the withdrawal of the ethanol treatment.
as §4

[3] = system: Anxiety-Related Behavior; assay: Elevated plus maze, anxiety-related behavior 8 hours after ethanol withdrawal in mice
Method: as §1, §2, §3
Mice were withdrawn from the ethanol diet at 7:00 AM and tested for anxiety-related behavior 8 hours later using a murine elevated plus-maze. It was constructed of perspex with two opposing open arms (30 × 5 × 0.25 cm) and two opposing closed arms (30 × 5 × 15 cm) which extended from a central platform (5 × 5 cm). The floor was of matt black perspex. The animals were acclimatized to the experimental room 1 hour prior to experimentation. Experiments were conducted under dim red light, and each 5 minute session was video-taped for later analysis, by an observer unaware of the prior treatment. During this analysis (Observer 3.0, Noldus Information Technology, Wageningen, Netherlands) measurements were made of the time spent on each arm of the maze, the number of entries onto each arm and rearing activity. Measures were also made as described in Table 3.
The results of the handling response ratings were compared by nonparametric two-way analysis of variance, designed for repeat measures on the same animal. The results of the area under the curve calculations were compared by the Mann-Whitney U-test. The convulsion incidence was analyzed by Fisher's exact probability test. […] The ataxia measurements were analyzed by the Mann-Whitney U-test and the locomotor activity by Student's t-test.

In the case of `NCC1(CC(=O)O)CCCCC1` [Gabapentin, 1-(aminomethyl)-cyclohexane acetic acid], the “Percentage of Group Showing Clonic Convulsions” value ([1]; Gabapentin 5 mg/kg i.p. 2 hours before test) was 92%, the “Percentage of Group Showing Clonic Convulsions” value ([1]; Gabapentin 20 mg/kg i.p.) was 70% and the “Percentage of Group Showing Clonic Convulsions” value ([1]; Gabapentin 50 mg/kg i.p.) was 40%. The “Percentage of Group Showing Clonic Convulsions” value ([1]; Gabapentin 100 mg/kg i.p.) was 30 p <0.01 c.f Ethanol/Saline group %, the “convulsion incidence after the audiogenic stimulus” value ([1]; any of the doses tested, 12 hours from the end of the ethanol treatment (data not shown)) was “No effect” and the “area under the handling curve for the first 4 hours” value (“area under the handling curve” for short) ([2]; gabapentin 20 mg/kg i.p., p <0.05) was “significant effects”. For the same compound, the “area under the handling curve” value ([2]; gabapentin 50 mg/kg i.p., p <0.05) was “significant effects”, the “duration of marked reduction in handling scores” value ([2]; gabapentin 100 mg/kg i.p.) was “around 4 hours” and the “ratings of behavior in response to gentle handling over the 12-hour testing period” value ([2]; gabapentin 100 mg/kg i.p. on withdrawal from ethanol, p <0.001) was “significantly reduced”. For the same compound, the “area under the handling curve” value ([2]; gabapentin 100 mg/kg i.p., p <0.01) was “significant effects”, the “ratings of behavior in response to gentle handling over the 12-hour period of measurement” value ([2]; lower doses of gabapentin (below 100 mg/kg) i.p. on withdrawal from ethanol) was “not significant” and the “decrease in the percentage time spent on the open arms caused by ethanol withdrawal” value ([3]; gabapentin 50 mg/kg i.p. 60 min before test, p <0.05 vs saline) was “decreased this effect”. The “decrease in the percentage time spent on the open arms caused by ethanol withdrawal” value ([3]; gabapentin 100 mg/kg i.p. 60 min before test, p <0.01 vs saline) was “decreased this effect”, the “mean time on the open arms in control animals” value ([3]; gabapentin 100 mg/kg i.p., control diet, mean increased) was “not significantly different from controls with saline” and the “number of protected head dips in control animals” value ([3]; gabapentin 100 mg/kg i.p., control diet, p <005 (so in the source)) was “significantly decreased”. The “increase in protected head dips in mice undergoing ethanol withdrawal” value ([3]; gabapentin 100 mg/kg i.p., p <0.01 compared with saline) was “significantly reduced”.
